BindingDB's records for doi:10.1016/S0960-894X(01)80999-9 (1993)

What was measured:
[1] = In vitro antagonistic activity towards LTB4 receptor was evaluated by inhibition of binding of [3H]LTB4 to human neutrophils
[2] = molecular target: Leukotriene B4 receptor (Cavia porcellus); assay: Compound was evaluated for inhibition of binding of [3H]LTB4 to LTB4 receptor in guinea-pig lung membranes

CCc1cc(C(C)=O)c(O)cc1OCCCOc1ccc(C(=O)c2cccc(C(=O)O)c2)cc1CCC(=O)O [3-[2-[3-(4-acetyl-2-ethyl-5-olatophenoxy)propoxy]-5-(3-carboxylatobenzoyl)phenyl]propanoate]
Ki [1]: 0.0068 µM

COc1ccc(/C=C/CCCCOc2ccc(C(=O)c3cccc(C(=O)O)c3)cc2CCC(=O)O)cc1 [(Z)-3-{3-(2-Carboxy-ethyl)-4-[6-(4-methoxy-phenyl)-hex-5-enyloxy]-benzoyl}-benzoic acid]
Ki [1]: 0.0078 µM

COc1ccc(/C=C/CCCCOc2ccc3c(=O)c4cc(C(=O)O)ccc4oc3c2CCC(=O)O)cc1 [LY-210073]
Ki [2]: 0.045 µM

CCc1cc(C(C)=O)c(O)cc1OCCCOc1ccc2c(=O)c3cc(C(=O)O)ccc3oc2c1 [disodium 6-[3-(4-acetyl-2-ethyl-5-olatophenoxy)propoxy]-9-oxo-9H-2-xanthenecarboxylate]
Ki [1]: 0.751 µM
